Measured values taken from ChEMBL document CHEMBL1125711, “Flavins as potential antimalarials. 2. 3-Methyl-10-(substituted-phenyl) flavins” (J Med Chem, 1991).

Tests used:
Mus musculus [1] = assay: Increase in mean survival days was determined in mice after ip administration of 50 mg/kg; toxic; type: functional; conditions: route intraperitoneal
[2] = test system: Plasmodium vinckei vinckei; assay: Antimalarial activity against Plasmodium vinckei V52 after 30 mg/kg intraperitoneal dose
Mus musculus [3] = assay: Antimalarial activity was evaluated against Plasmodium vinckei vinckei V52 after intraperitoneal administration at dose 50 mg/kg; type: functional
Mus musculus [4] = assay: Increase in mean survival days was determined in mice after ip administration of 40 mg/kg; toxic; type: functional; conditions: route intraperitoneal
Mus musculus [5] = assay: Increase in mean survival days was determined in mice after ip administration of 70 mg/kg; toxic; type: functional; conditions: route intraperitoneal
Mus musculus [6] = assay: Antimalarial activity was evaluated against Plasmodium vinckei vinckei V52 after intraperitoneal administration at dose 40 mg/kg; type: functional
[7] = test system: Plasmodium vinckei vinckei; assay: Antimalarial activity against Plasmodium vinckei V52 on 10 mg/kg intraperitoneal dose; type: functional
[8] = test system: Plasmodium vinckei vinckei; assay: Antimalarial activity against Plasmodium vinckei V52 on 70 mg/kg intraperitoneal dose; type: functional
Mus musculus [9] = assay: Increase in mean survival days was determined in mice after ip administration of 30 mg/kg; type: functional; conditions: route intraperitoneal
Mus musculus [10] = assay: Increase in mean survival days was determined in mice after ip administration of 10 mg/kg; type: functional; conditions: route intraperitoneal
Mus musculus [11] = assay: Antimalarial activity was evaluated against Plasmodium vinckei vinckei V52 after intraperitoneal administration at dose 70 mg/kg; type: functional
Mus musculus [12] = assay: Increase in mean survival days was determined in mice after ip administration of 50 mg/kg; type: functional; conditions: route intraperitoneal
Mus musculus [13] = assay: Antimalarial activity was evaluated against Plasmodium vinckei V52 after intraperitoneal administration at dose 20 mg/kg; type: functional
Mus musculus [14] = species: Mus musculus; assay: Effective dose required to obtain a parasitaemia of 40% 48 hours after treatment in mice.; type: functional
Mus musculus [15] = assay: Antimalarial activity was evaluated against Plasmodium vinckei V52 after intraperitoneal administration at dose 30 mg/kg; type: functional
Mus musculus [16] = assay: Increase in mean survival days was determined in mice after ip administration of 20 mg/kg; type: functional; conditions: route intraperitoneal
Mus musculus [17] = assay: Antimalarial activity was evaluated against Plasmodium vinckei V52 after intraperitoneal administration at dose 60 mg/kg; type: functional
Mus musculus [18] = assay: Antimalarial activity was evaluated against Plasmodium vinckei vinckei V52 after intraperitoneal administration at dose 10 mg/kg; type: functional
Mus musculus [19] = assay: Increase in mean survival days was determined in mice after ip administration of 60 mg/kg; type: functional; conditions: route intraperitoneal
[20] = test system: Plasmodium vinckei vinckei; assay: Increase in mean survival days of Plasmodium inoculated mice (Mus musculus) after 70 mg/Kg intraperitoneal dose; type: functional
[21] = test system: Plasmodium vinckei vinckei; assay: Antimalarial activity against Plasmodium vinckei V52 on 30 mg/kg intraperitoneal dose; type: functional
Mus musculus [22] = assay: Antimalarial activity was evaluated against Plasmodium vinckei V52 after intraperitoneal administration at dose 50 mg/kg; type: functional
Mus musculus [23] = assay: Antimalarial activity was evaluated against Plasmodium vinckei V52 after intraperitoneal administration at dose 25 mg/kg; type: functional
Mus musculus [24] = assay: Antimalarial activity was evaluated against Plasmodium vinckei V52 after intraperitoneal administration at dose 15 mg/kg; type: functional
[25] = test system: Plasmodium vinckei vinckei; assay: Antimalarial activity against Plasmodium vinckei V52 after 20 mg/kg intraperitoneal dose; type: functional
Mus musculus [26] = species: Mus musculus; assay: Effective dose required to obtain a parasitaemia of 40% 48 hours after treatment in mice; type: functional
Mus musculus [27] = assay: Antimalarial activity was evaluated against Plasmodium vinckei vinckeii V52 after intraperitoneal administration at dose 40 mg/kg; type: functional
Mus musculus [28] = assay: Antimalarial activity was evaluated against Plasmodium vinckei vinckei V52 after intraperitoneal administration at dose 50 mg/kg.; type: functional
Mus musculus [29] = assay: Increase in mean survival days was determined in mice after ip administration of 15 mg/kg; type: functional; conditions: route intraperitoneal
Mus musculus [30] = assay: Increase in mean survival days was determined in mice after ip administration of 40 mg/kg; type: functional; conditions: route intraperitoneal
Mus musculus [31] = assay: Antimalarial activity was evaluated against Plasmodium vinckei vinckei V52 after intraperitoneal administration at dose 40 mg/kg.; type: functional
Mus musculus [32] = assay: Antimalarial activity was evaluated against Plasmodium vinckei V52 after intraperitoneal administration at dose 70 mg/kg; type: functional
Mus musculus [33] = assay: Antimalarial activity was evaluated against Plasmodium vinckei vinckeii V52 after intraperitoneal administration at dose 25 mg/kg; type: functional
[34] = test system: Plasmodium vinckei vinckei; assay: Antimalarial activity against Plasmodium vinckei vinckeii V52 at 15 mg/kg intraperitoneally dose; type: functional; conditions: route intraperitoneal
[35] = test system: Plasmodium vinckei vinckei; assay: Antimalarial activity against Plasmodium vinckei vinckeii V52 at 20 mg/kg intraperitoneally dose; type: functional; conditions: route intraperitoneal
[36] = test system: Plasmodium vinckei vinckei; assay: Antimalarial activity against Plasmodium vinckei vinckeii V52 after 10 mg/kg intraperitoneally dose; type: functional; conditions: route intraperitoneal
Mus musculus [37] = assay: Antimalarial activity was evaluated against Plasmodium vinckei vinckeii V52 after intraperitoneal administration at dose 50 mg/kg; type: functional
Mus musculus [38] = assay: Antimalarial activity was evaluated against Plasmodium vinckei vinckei V52 after intraperitoneal administration at dose 60 mg/kg; type: functional
Mus musculus [39] = assay: Increase in mean survival days was determined in mice after ip administration of 60 mg/kg; toxic; type: functional; conditions: route intraperitoneal
Mus musculus [40] = assay: Antimalarial activity was evaluated against Plasmodium vinckei vinckei V52 after intraperitoneal administration at dose 30 mg/kg; type: functional
Mus musculus [41] = assay: Antimalarial activity was evaluated against Plasmodium vinckei vinckei V52 after intraperitoneal administration at dose 25 mg/kg; type: functional
Mus musculus [42] = assay: Antimalarial activity was evaluated against Plasmodium vinckei vinckeii V52 after intraperitoneal administration at dose 15 mg/kg; type: functional
Mus musculus [43] = assay: Antimalarial activity was evaluated against Plasmodium vinckei V52 after intraperitoneal administration at dose 10 mg/kg; type: functional
Mus musculus [44] = assay: Antimalarial activity was evaluated against Plasmodium vinckei vinckeii V52 after intraperitoneal administration at dose 60 mg/kg; type: functional

SMILES: Cc1ccc(-n2c3nc(=O)n(C)c(=O)c-3nc3ccccc32)c(C)c1
- Mean survival days (Mus musculus [1]): -2 days
- Cured [2]: 20%
- Cured (Mus musculus [3]): 0%
- Mean survival days (Mus musculus [4]): -1.7 days
- Mean survival days (Mus musculus [5]): -2 days
- Cured (Mus musculus [6]): 40%
- Cured [7]: 0%
- Cured [8]: 0%
- Mean survival days (Mus musculus [9]): 1.3 days
- Mean survival days (Mus musculus [10]): 0.4 days

SMILES: Cc1ccc(-n2c3nc(=O)n(C)c(=O)c-3nc3ccccc32)cc1C
- Cured (Mus musculus [11]): 100%
- Cured (Mus musculus [3]): 20%
- Mean survival days (Mus musculus [12]): 0.3 days
- Cured (Mus musculus [13]): 0%
- ED40 (Mus musculus [14]): 210 µmol/kg
- Cured (Mus musculus [15]): 0%
- Mean survival days (Mus musculus [16]): 0.2 days
- Cured (Mus musculus [17]): 60%
- Mean survival days (Mus musculus [9]): 0.8 days
- Mean survival days (Mus musculus [10]): 0.3 days
- Cured (Mus musculus [18]): 0%
- Mean survival days (Mus musculus [19]): 0.5 days

SMILES: Cn1c(=O)nc2n(-c3ccccc3)c3ccccc3nc-2c1=O
- Mean survival days (Mus musculus [12]): 0.3 days
- Mean survival days [20]: 1 days
- ED40 (Mus musculus [14]): 248 nM/kg
- Cured [21]: 0%
- Cured (Mus musculus [17]): 20%
- Cured (Mus musculus [22]): 0%
- Cured [7]: 0%
- Cured [8]: 60%
- Mean survival days (Mus musculus [9]): 0 days
- Mean survival days (Mus musculus [10]): 0 days
- Mean survival days (Mus musculus [19]): 0.5 days

SMILES: Cn1c(=O)nc2n(-c3ccc(Cl)cc3)c3ccccc3nc-2c1=O
- Mean survival days (Mus musculus [1]): -0.8 days
- Cured (Mus musculus [23]): 100%
- Cured (Mus musculus [24]): 80%
- Cured [25]: 100%
- Cured [21]: 100%
- Mean survival days (Mus musculus [5]): -1 days
- ED40 (Mus musculus [26]): 38.8 µmol/kg
- Cured (Mus musculus [27]): 100%
- Cured [7]: 20%
- Cured (Mus musculus [28]): 20%
- Mean survival days (Mus musculus [29]): 4 days
- Cured [8]: 0%
- Mean survival days (Mus musculus [10]): 0.3 days

SMILES: Cn1c(=O)nc2n(-c3ccc(F)cc3)c3ccccc3nc-2c1=O
- Mean survival days (Mus musculus [30]): 0 days
- Cured (Mus musculus [31]): 80%
- Mean survival days (Mus musculus [12]): -0.5 days
- Mean survival days (Mus musculus [16]): 13.4 days
- Cured (Mus musculus [24]): 0%
- Cured [25]: 0%
- Cured [21]: 80%
- Mean survival days (Mus musculus [5]): -0.6 days
- ED40 (Mus musculus [26]): 103 µmol/kg
- Cured (Mus musculus [22]): 20%
- Cured [7]: 0%
- Mean survival days (Mus musculus [29]): 0 days
- Cured [8]: 0%
- Mean survival days (Mus musculus [9]): 0 days
- Mean survival days (Mus musculus [10]): 0 days

SMILES: Cn1c(=O)nc2n(-c3ccc(Br)cc3)c3ccccc3nc-2c1=O
- Cured (Mus musculus [32]): 0%
- Cured (Mus musculus [33]): 100%
- Cured (Mus musculus [15]): 100%
- Cured [34]: 100%
- Cured [35]: 100%
- ED40 (Mus musculus [26]): 38.4 µmol/kg
- Cured [36]: 0%
- Cured (Mus musculus [37]): 40%

SMILES: Cc1cc(C)cc(-n2c3nc(=O)n(C)c(=O)c-3nc3ccccc32)c1
- Cured (Mus musculus [38]): 0%
- Cured (Mus musculus [3]): 60%
- Mean survival days (Mus musculus [12]): 5.5 days
- Cured (Mus musculus [13]): 100%
- Mean survival days (Mus musculus [39]): 0.4 days
- Cured (Mus musculus [40]): 100%
- Cured (Mus musculus [24]): 60%
- Cured (Mus musculus [6]): 100%
- ED40 (Mus musculus [26]): 105 µmol/kg
- Cured [7]: 0%
- Mean survival days (Mus musculus [29]): 1 days
- Cured (Mus musculus [41]): 100%
- Mean survival days (Mus musculus [10]): 0 days

SMILES: Cn1c(=O)nc2n(-c3cccc(Br)c3)c3ccccc3nc-2c1=O
- Mean survival days (Mus musculus [30]): 0 days
- Cured (Mus musculus [42]): 0%
- Cured (Mus musculus [32]): 100%
- Cured (Mus musculus [43]): 0%
- Mean survival days (Mus musculus [12]): 1 days
- Cured (Mus musculus [15]): 0%
- Cured (Mus musculus [27]): 0%
- Mean survival days (Mus musculus [29]): 0 days
- Mean survival days (Mus musculus [9]): 0 days
- Cured (Mus musculus [44]): 80%
- Cured (Mus musculus [37]): 80%
- Mean survival days (Mus musculus [10]): 0 days
- Mean survival days (Mus musculus [19]): -1 days
